Assay results: US7186840B2, “Quinoline derivatives as anti-inflammatory agents” (Roche Palo Alto LLC, priority 2000, dated 2007)

Tests used:
[1] = target: T1, COX I (Homo sapiens, UniProt P23219); assay: Inhibition of COX I in vitro (radiometric assay); format: biochemical; conditions: partially purified enzyme, 10 min preincubation, 20 micromolar [14C]arachidonic acid
T1 construct: made in house
Procedure: (§1) The COX I and COX II inhibitory activity of compounds of this invention in vitro was determined using partially purified COX I and COX II enzymes, prepared as described in J. Barnett et. al., Biochim Biophys. Acta, 1209, 130–139 (1994).
(§2) COX I and COX II samples were diluted with Tris-HCl buffer (50 mM Tris-HCl, pH 7.9) containing 2 mM EDTA and 10% glycerol and reconstituted by incubating first with 2 mM phenol for 5 minutes and then with 1 micromolar hematin for an additional 5 minutes. 125 μl of the reconstituted COX I or COX II enzyme were preincubated for 10 minutes at room temperature in a shaking water bath with the compounds of the invention dissolved in 2–15 μl of DMSO or the carrier vehicles (control samples). The enzyme reaction was initiated by adding 25 μl of 1-[14 C]arachidonic acid (80,000–100,000 cpm/tube; 20 micromolar final concentration) and the reaction was allowed to continue for an additional 45 seconds. The reaction was terminated by adding 100 μl of 2N HCl and 750 μl water. An aliquot (950 μl) of the reaction mixture was loaded onto a 1 mL C18 Sep-Pak column (J. T. Baker, Phillipsburg, N.J.) which had been previously washed with 2–3 mL methanol and equilibrated with 5–6 mL distilled water. Oxygenated products were quantitatively eluted with 3 mL of acetonitrile/water/acetic acid (50:50:0.1, v/v) and the radioactivity in the eluate determined in a scintillation counter.
(§3) The COX inhibitory activities (expressed as IC50, the concentration causing 50% inhibition of the COX enzyme being assayed) of some exemplary compounds of the invention were: […]

[2] = target: T2, COX II (Homo sapiens, UniProt P35354); assay: Inhibition of COX II in vitro (radiometric assay); format: biochemical; conditions: partially purified enzyme, 10 min preincubation, 20 micromolar [14C]arachidonic acid
T2 construct: made in house
T2 sequence (P35354 18-604): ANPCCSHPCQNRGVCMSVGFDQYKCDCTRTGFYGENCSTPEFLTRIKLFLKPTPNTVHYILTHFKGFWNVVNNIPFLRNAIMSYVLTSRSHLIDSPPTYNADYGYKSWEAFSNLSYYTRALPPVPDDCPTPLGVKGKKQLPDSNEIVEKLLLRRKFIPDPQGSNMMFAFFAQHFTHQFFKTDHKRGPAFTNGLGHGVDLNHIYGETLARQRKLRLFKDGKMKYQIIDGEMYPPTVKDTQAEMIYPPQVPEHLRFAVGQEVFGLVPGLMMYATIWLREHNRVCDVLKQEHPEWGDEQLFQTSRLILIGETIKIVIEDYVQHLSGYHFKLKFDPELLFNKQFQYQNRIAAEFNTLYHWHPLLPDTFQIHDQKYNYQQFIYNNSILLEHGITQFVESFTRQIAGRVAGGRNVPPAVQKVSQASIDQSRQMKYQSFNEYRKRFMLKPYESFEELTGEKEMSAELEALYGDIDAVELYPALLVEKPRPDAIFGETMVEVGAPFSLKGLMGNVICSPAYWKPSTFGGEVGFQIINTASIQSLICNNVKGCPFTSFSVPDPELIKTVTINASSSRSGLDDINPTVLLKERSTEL
Procedure: as §1, §2, §3

T1 sequence (P23219 24-599): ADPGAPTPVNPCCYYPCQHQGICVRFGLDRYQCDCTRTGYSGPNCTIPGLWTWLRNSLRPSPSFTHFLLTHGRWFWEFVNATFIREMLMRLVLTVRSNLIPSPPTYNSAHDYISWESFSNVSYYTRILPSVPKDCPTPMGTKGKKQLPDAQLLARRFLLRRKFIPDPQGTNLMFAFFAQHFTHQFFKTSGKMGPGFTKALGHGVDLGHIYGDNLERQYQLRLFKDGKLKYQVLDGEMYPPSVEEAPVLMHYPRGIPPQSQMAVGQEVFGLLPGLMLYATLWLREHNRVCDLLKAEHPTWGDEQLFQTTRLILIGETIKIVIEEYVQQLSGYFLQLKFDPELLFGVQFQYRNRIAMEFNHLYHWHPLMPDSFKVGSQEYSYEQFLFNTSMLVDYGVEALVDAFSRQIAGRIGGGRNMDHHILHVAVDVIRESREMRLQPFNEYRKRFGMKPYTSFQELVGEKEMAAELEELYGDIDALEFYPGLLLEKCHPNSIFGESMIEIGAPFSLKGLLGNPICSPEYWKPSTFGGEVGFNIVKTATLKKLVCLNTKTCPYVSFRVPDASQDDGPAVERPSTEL

IC50 [1] [µM]	IC50 [2] [µM]	Structure (SMILES)
> 40	< 0.2	COc1ccc2nc(S(C)(=O)=O)ccc2c1Sc1ccc(F)cc1F [Cpd 101, 5-(2,4-Difluoro-phenylsulfanyl)-2-methanesulfonyl-6-methoxy-quinoline]
> 40	< 0.2	COc1ccc2nc(S(C)(=O)=O)ccc2c1Sc1ccccc1Cl [Cpd 104, 5-(2-chloro-phenylsulfanyl)-2-methanesulfonyl-6-methoxy-quinoline]
> 40	< 0.2	COc1ccc2nc(S(C)(=O)=O)ccc2c1Sc1ccc(F)cc1Cl [Cpd 105, 5-(2-chloro-4-fluoro-phenylsulfanyl)-2-methanesulfonyl-6-methoxy-quinoline]
> 40	< 0.3	COc1ccc2nc(S(C)(=O)=O)ccc2c1Sc1ccc(Br)cc1 [Cpd 106, 5-(4-bromo-phenylsulfanyl)-2-methanesulfonyl-6-methoxy-quinoline]
> 40	< 0.3	COc1ccc2nc(S(C)(=O)=O)ccc2c1Sc1ccc(Cl)cc1Cl [Cpd 107, 5-(2,4-dichloro-phenylsulfanyl)-2-methanesulfonyl-6-methoxy-quinoline]
